Data reported in PMC11969009 (Nature Communications, 2025).
pEC50, pIC50, pKd: −log10 of the molar value. Where “and” joins values, the source holds several entries; their conditions need not be identical. Identical values can stand only once. Like-named read-outs stand apart in the source and are kept apart here.

Columns and labels:
OC43 PLpro = OC43 PLpro (Human coronavirus OC43, UniProt P0C6X6); format: biochemical
SARS-CoV-2 PLpro [1] = molecular target: T1, SARS-CoV-2 PLpro (Severe acute respiratory syndrome coronavirus 2, UniProt P0DTD1); test: biochemical; format: binding
MERS-CoV PLpro = MERS-CoV PLpro (Middle East respiratory syndrome-related coronavirus, UniProt K9N7C7); format: biochemical; parameters: unit: %
SARS-CoV-2 PLpro [2] = molecular target: T1, SARS-CoV-2 PLpro; test: cell-based; format: cell-based
SARS-CoV-2 PLpro [3] = molecular target: T1, SARS-CoV-2 PLpro; test: biochemical; parameters: inhibition of SARS-CoV-2 PLpro, UbRh dose-response replicate value: unit: %
HKU1 PLpro = HKU1 PLpro (Human coronavirus HKU1, UniProt P0C6X2); test: biochemical; format: biochemical; parameters: inhibition of HKU1 PLpro, UbRh dose-response replicate value: unit: %
Sequence of HKU1 PLpro (P0C6X2 1648-1958 limits assumed): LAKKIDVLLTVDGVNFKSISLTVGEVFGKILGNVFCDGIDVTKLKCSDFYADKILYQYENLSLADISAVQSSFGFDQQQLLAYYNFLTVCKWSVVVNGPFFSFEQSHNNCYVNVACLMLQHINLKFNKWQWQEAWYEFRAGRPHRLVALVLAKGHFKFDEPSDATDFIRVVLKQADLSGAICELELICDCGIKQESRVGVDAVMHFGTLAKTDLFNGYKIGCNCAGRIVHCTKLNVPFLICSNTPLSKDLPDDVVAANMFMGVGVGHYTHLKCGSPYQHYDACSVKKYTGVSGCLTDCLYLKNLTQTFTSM

Sequence of MERS-CoV PLpro (K9N7C7 1482-1803 limits assumed): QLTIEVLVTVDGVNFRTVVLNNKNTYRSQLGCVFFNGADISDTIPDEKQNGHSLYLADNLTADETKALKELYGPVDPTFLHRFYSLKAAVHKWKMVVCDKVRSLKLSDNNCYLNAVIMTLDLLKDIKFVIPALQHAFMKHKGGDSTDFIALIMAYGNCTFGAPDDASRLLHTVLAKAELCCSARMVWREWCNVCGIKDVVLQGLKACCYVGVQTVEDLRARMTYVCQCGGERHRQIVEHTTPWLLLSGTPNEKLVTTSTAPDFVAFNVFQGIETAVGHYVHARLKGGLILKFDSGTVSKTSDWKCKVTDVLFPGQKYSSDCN
Sequence of OC43 PLpro (P0C6X6 1561-1872 limits assumed): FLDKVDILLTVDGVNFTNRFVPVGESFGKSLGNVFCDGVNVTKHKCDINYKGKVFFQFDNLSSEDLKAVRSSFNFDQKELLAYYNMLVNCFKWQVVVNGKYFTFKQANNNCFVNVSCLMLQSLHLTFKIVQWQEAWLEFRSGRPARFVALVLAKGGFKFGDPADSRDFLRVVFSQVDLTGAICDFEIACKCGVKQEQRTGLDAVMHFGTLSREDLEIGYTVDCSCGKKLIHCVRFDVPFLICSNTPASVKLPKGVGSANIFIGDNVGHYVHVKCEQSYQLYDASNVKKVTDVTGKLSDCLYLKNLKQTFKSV

CO/N=C(/c1ccc2cc(OC)ccc2c1)[C@@H]1CCCN([C@H]2CC[C@@H](O)CC2)C1 [WEHI-P4]
inhibition of OC43 PLpro, UbRh dose-response replicate value (OC43 PLpro; Conc 3.63 µM): -4.48 and 0.0664 and 5.368 and 1.321
inhibition of OC43 PLpro, UbRh dose-response replicate value (OC43 PLpro; Conc 98 µM): 8.342 and 5.591 and 3.318 and 3.826
pKd (SARS-CoV-2 PLpro [1]): 7.74
Response (RU), report points (SARS-CoV-2 PLpro [1]): 23.5521 RU and 19.8909 RU and 21.8514 RU and 23.0991 RU and 23.6093 RU and 23.8360 RU
inhibition of MERS-CoV PLpro, UbRh dose-response replicate value (MERS-CoV PLpro): -2.626 and 0.2924 and -2.097 and -1.6716 and -0.7294 and -2.565 and -2.287 and 0.1452 and -3.504 and -2.889 and 1.578 and -2.541 and -3.292 and -3.12 and -0.8701 and -1.654 and -2.848 and 0.1888 and -1.626
inhibition of MERS-CoV PLpro, UbRh dose-response replicate value (MERS-CoV PLpro; Conc 0.00498 µM): 2.537 and 1.088 and 4.818 and -0.3578
inhibition of MERS-CoV PLpro, UbRh dose-response replicate value (MERS-CoV PLpro; Conc 0.0149 µM): 0.4714 and 1.45 and -3.026 and -3.057
inhibition of MERS-CoV PLpro, UbRh dose-response replicate value (MERS-CoV PLpro; Conc 0.0448 µM): 0.04351 and -1.536 and 0.7971 and -3.294
inhibition of MERS-CoV PLpro, UbRh dose-response replicate value (MERS-CoV PLpro; Conc 3.63 µM): -1.9557 and -1.916 and -5.199 and -5.618
inhibition of MERS-CoV PLpro, UbRh dose-response replicate value (MERS-CoV PLpro; Conc 98 µM): -3.229 and -4.988 and -1.6159 and -4.525
pEC50 (SARS-CoV-2 PLpro [2]): 6.51
inhibition of SARS-CoV-2 PLpro, UbRh dose-response replicate value (SARS-CoV-2 PLpro [3]; Conc 0.000249 µM): -6.989 and -6.2311 and -15.3901 and -12.0234 and -3.121 and 2.182 and 11.6978 and 1.819
inhibition of SARS-CoV-2 PLpro, UbRh dose-response replicate value (SARS-CoV-2 PLpro [3]; Conc 0.000745 µM): -5.473 and -5.949 and -17.0454 and -10.682
inhibition of SARS-CoV-2 PLpro, UbRh dose-response replicate value (SARS-CoV-2 PLpro [3]; Conc 0.000747 µM): 12.1399 and 17.4092 and 12.0617
inhibition at 0.000747 µM (SARS-CoV-2 PLpro [3]; Conc 0.000747 µM, read-out: inhibition of SARS-CoV-2 PLpro, UbRh dose-response replicate value): 8.73%
inhibition of SARS-CoV-2 PLpro, UbRh dose-response replicate value (SARS-CoV-2 PLpro [3]; Conc 0.00498 µM): -1.775 and 0.6518 and -0.6615 and -14.6544
inhibition of SARS-CoV-2 PLpro, UbRh dose-response replicate value (SARS-CoV-2 PLpro [3]; Conc 0.00675 µM): 22.4234 and 17.1978 and 22.0771
inhibition at 0.00675 µM (SARS-CoV-2 PLpro [3]; Conc 0.00675 µM, read-out: inhibition of SARS-CoV-2 PLpro, UbRh dose-response replicate value): 23.8%
inhibition of SARS-CoV-2 PLpro, UbRh dose-response replicate value (SARS-CoV-2 PLpro [3]; Conc 0.0149 µM): 22.1269 and 15.6043 and 12.3348
inhibition at 0.0149 µM (SARS-CoV-2 PLpro [3]; Conc 0.0149 µM, read-out: inhibition of SARS-CoV-2 PLpro, UbRh dose-response replicate value): 20.2%
inhibition of SARS-CoV-2 PLpro, UbRh dose-response replicate value (SARS-CoV-2 PLpro [3]; Conc 0.0448 µM): 70.4961 and 67.8098 and 82.9795
inhibition at 0.0448 µM (SARS-CoV-2 PLpro [3]; Conc 0.0448 µM, read-out: inhibition of SARS-CoV-2 PLpro, UbRh dose-response replicate value): 69.6%
inhibition of SARS-CoV-2 PLpro, UbRh dose-response replicate value (SARS-CoV-2 PLpro [3]; Conc 0.545 µM): 96.1218 and 96.9708 and 96.4204 and 99.1563 and 99.6768 and 97.5259 and 100.026
inhibition at 0.545 µM (SARS-CoV-2 PLpro [3]; Conc 0.545 µM, read-out: inhibition of SARS-CoV-2 PLpro, UbRh dose-response replicate value): 94.8%
inhibition of SARS-CoV-2 PLpro, UbRh dose-response replicate value (SARS-CoV-2 PLpro [3]; Conc 1.63 µM): 99.7919 and 99.9266 and 100.674
inhibition at 1.63 µM (SARS-CoV-2 PLpro [3]; Conc 1.63 µM, read-out: inhibition of SARS-CoV-2 PLpro, UbRh dose-response replicate value): 99.9%
inhibition of SARS-CoV-2 PLpro, UbRh dose-response replicate value (SARS-CoV-2 PLpro [3]; Conc 1.64 µM): 100.528 and 98.3984 and 97.5602
inhibition at 1.64 µM (SARS-CoV-2 PLpro [3]; Conc 1.64 µM, read-out: inhibition of SARS-CoV-2 PLpro, UbRh dose-response replicate value): 101%
inhibition of SARS-CoV-2 PLpro, UbRh dose-response replicate value (SARS-CoV-2 PLpro [3]; Conc 3.63 µM): 107.19 and 107.537 and 118.551
inhibition at 3.63 µM (SARS-CoV-2 PLpro [3]; Conc 3.63 µM, read-out: inhibition of SARS-CoV-2 PLpro, UbRh dose-response replicate value): 108%
inhibition of SARS-CoV-2 PLpro, UbRh dose-response replicate value (SARS-CoV-2 PLpro [3]; Conc 4.9 µM): 99.5845 and 98.2639 and 99.0831 and 98.0118 and 99.4255 and 97.4945 and 99.077
inhibition at 4.9 µM (SARS-CoV-2 PLpro [3]; Conc 4.9 µM, read-out: inhibition of SARS-CoV-2 PLpro, UbRh dose-response replicate value): 99.1%
inhibition of SARS-CoV-2 PLpro, UbRh dose-response replicate value (SARS-CoV-2 PLpro [3]; Conc 98 µM): 106.984 and 107.551 and 120.253
inhibition at 98 µM (SARS-CoV-2 PLpro [3]; Conc 98 µM, read-out: inhibition of SARS-CoV-2 PLpro, UbRh dose-response replicate value): 107%
pIC50 (SARS-CoV-2 PLpro [3]; IC50 (UbRh) SARS-CoV-2 PLpro, Supplementary Fig. 2b): 7.49
inhibition at […] (SARS-CoV-2 PLpro [3]; read-out: inhibition of SARS-CoV-2 PLpro, UbRh dose-response replicate value): 93.6% and 81.4% and 107% (2×) and 108% and 105% and 99.2% and 92.6%
inhibition of HKU1 PLpro, UbRh dose-response replicate value (HKU1 PLpro): 1.705 and -0.1054 and 2.2991 and 4.234 and 8.121 and -2.271 and 3.812 and 1.385 and 5.008 and 9.904 and 4.3232 and 13.1694 and 12.2718 and 4.484 and 1.663 and 12.2999 and 8.634 and 4.883 and 1.702 and 14.2701
inhibition of HKU1 PLpro, UbRh dose-response replicate value (HKU1 PLpro; Conc 0.00498 µM): 10.7444 and 9.596 and 9.063
inhibition at 0.00498 µM (HKU1 PLpro; Conc 0.00498 µM, read-out: inhibition of HKU1 PLpro, UbRh dose-response replicate value): 6.7%
inhibition of HKU1 PLpro, UbRh dose-response replicate value (HKU1 PLpro; Conc 0.0149 µM): 6.961 and -0.5687 and 9.316 and 1.404
inhibition of HKU1 PLpro, UbRh dose-response replicate value (HKU1 PLpro; Conc 0.0448 µM): 2.999 and 18.114 and 6.887 and 6.926
inhibition of HKU1 PLpro, UbRh dose-response replicate value (HKU1 PLpro; Conc 3.63 µM): -1.799 and 2.922 and 4.67 and 5.455
inhibition of HKU1 PLpro, UbRh dose-response replicate value (HKU1 PLpro; Conc 98 µM): -6.574 and 1.985 and 4.593 and -1.2047
